Experimental data: article PMC4580987, “Catalytic site inhibition of insulin-degrading enzyme by a small molecule induces glucose intolerance in mice” (Nature Communications, 2015)
Entries after “also recorded” stand apart in the source; their conditions may differ.

Legend:
[1] = biological target: T1, Recombinant human MMP-1 (Homo sapiens, UniProt P03956); assay: Matrix metalloprotease 1 inhibition (CEREP); format: biochemical; conditions: means of two experiments minimum, s.d.±10%; read-out: Selectivity IC50 hMMP-1
T1 construct: host or cells: E. coli
T1 sequence (P03956 100-469): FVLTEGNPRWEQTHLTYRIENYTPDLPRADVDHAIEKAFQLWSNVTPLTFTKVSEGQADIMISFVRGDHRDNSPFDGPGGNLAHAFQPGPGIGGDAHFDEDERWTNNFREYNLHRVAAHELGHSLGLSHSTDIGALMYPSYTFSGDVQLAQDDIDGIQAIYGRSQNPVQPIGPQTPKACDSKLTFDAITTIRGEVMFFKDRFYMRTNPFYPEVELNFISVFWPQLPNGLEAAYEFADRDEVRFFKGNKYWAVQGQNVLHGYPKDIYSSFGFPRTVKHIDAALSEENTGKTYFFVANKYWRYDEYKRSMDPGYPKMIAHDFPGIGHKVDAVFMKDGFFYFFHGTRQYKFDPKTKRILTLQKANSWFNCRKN
Procedure: Briefly, human NEP (R&D Systems; 200 ng ml^−1) was incubated 10 min at room temperature with compound in Hepes 50 mM, NaCl 100 mM, pH 7.4 and the enzymatic reaction started by adding the substrate (final concentration 200 μM). […] Briefly, human ACE (R&D Systems) was incubated 10 min at room temperature with compound in Tris 50 mM 1% NaCl pH 7.4 and the enzymatic reaction is started by adding the substrate (final concentration 300 μM). […] In vitro activity was assayed at CEREP.SA as follows.

[2] = tested on: C57BL/6J mice; assay: Oral glucose tolerance test (OGTT) in C57BL/6J mice; format: in vivo, mouse
Procedure: OGTT and IPGTT were performed on 11 to 16 week-old male or female mice (n=4–7 per experimental group). C57BL/6J mice were purchased from Charles River Laboratories (France), Stock no. 000664. C57BL/6J Ide−/− mice were obtained from Guenette[20] and bred in the animal facility of INSERM U1151. WT C57BL/6J mice of the same genetic background were bred in the same animal facility in parallel. NOD Ide−/− mice were generated by backcrossing C57BL/6J Ide−/− mice with NOD wt mice bred in the animal facility of INSERM U1151 and maintained in this facility together with WT NOD mice. Normoglycemic WT and Ide−/− female NOD mice aged 14 weeks were used for OGTTs. Following a 6 h fasting period, a small tail cut was made, basal blood glucose was determined. […] Fifteen minutes later, blood glucose concentrations were measured before and after (up to 120 min, as shown) oral (2 g kg^−1 or 3 g kg^−1, as shown) or intraperitoneal (1.5 g kg^−1) glucose administration. In one series of OGTTs using 3 g kg^−1 glucose and shown in Fig. 5, groups of WT and Ide−/− were inverted between experiments, such that mice initially treated with vehicle were treated 2 days later with 1 and vice versa. Blood glucose levels were determined using an Accu-Check glucometer (Roche Diagnostics). Areas under the curves (AUC) for OGTT and IPGTT were calculated to evaluate glucose tolerance. Plasma insulin concentrations were measured by ELISA (cat. no. 10-1247-01,Mercodia) in blood samples collected 15 min before and 15 and 90 min relative to oral glucose injection. The protocol was approved by the ethical comitee CEEA Paris Descartes (CEEA34).

O=C(C[C@@H](Cc1ccc2ccccc2c1)n1cc(CNC(=O)c2ccc(F)cc2)nn1)NO [Compound 1]
IC50 [1]: 10 µM | glucose tolerance in OGTT, WT C57BL/6J ([2]; 50 mg kg^−1 ip, 3 g kg^−1 oral glucose 15 min later): Impairs glucose tolerance in OGTT; also recorded: acute glucose intolerance | glucose tolerance in OGTT, Ide−/− C57BL/6J ([2]; 50 mg kg^−1 ip, Ide−/− mice): did not develop glucose intolerance | plasma insulin concentrations in OGTT, Ide−/− C57BL/6J ([2]; 50 mg kg^−1 ip, Ide−/− mice): no effect | plasma glucose after oral glucose administration (OGTT compared with IPGTT) ([2]; 50 mg kg^−1 ip, oral glucose 2 g kg^−1): significantly increased | plasma insulin levels in OGTT versus vehicle, WT C57BL/6J ([2]; baseline, 15 and 90 min after glucose load): similar
